# In US20240245670A1, “DOSING REGIMEN AND PHARMACEUTICAL COMBINATION COMPRISING 3-(1-OXOISOINDOLIN-2-YL)PIPERIDINE-2,6-DIONE DERIVATIVES” (Novartis AG, priority 2018, published 2024):
# Columns and labels:
# [1] = test system: anti-KLH IG; test: Serum anti-KLH IG levels in immunized cynomolgus monkeys; format: in vivo, cynomolgus monkey; conditions: daily oral 0.1 and 3 mg/kg
# Procedure: The PK/PD relationship of I-57 was further examined in cynomolgus monkeys after repeated daily oral doses of 0.1 and 3 mg/kg. In this study, a cohort of animals were initially immunized with an antigen-adjuvant mixture (KLH/Squalene). The experiment was designed to assess the effect of I-57 exposure, and the resulting IKZF2 degradation, on immune response during immunization to test the hypothesis that IKZF2 degradation would result in increased proliferation of stimulated T-cells. In the experiment, daily I-57 oral treatment was initiated 5 days after immunization. An immunization booster dose was administered on day 15. I-57 plasma concentration and IKZF2 expression (as determined by flow cytometry) in FOXP3+ T cells from PBMCs were determined (FIG. 9A and FIG. 9B).
# In order to measure the impact of I-57 treatment on the immune response following immunization, serum anti-KLH IG levels were measured longitudinally, and levels of T cell activation were measured in PBMCs by flow cytometry. […] In contrast, the proportion of proliferative peripheral T cells (denoted by Ki67 staining) was increased in the highest dose group (3 mg/kg) in the recall response phase, compared to immunization alone.
# [2] = biological target: T1, IKZF2 (Oryctolagus cuniculus, UniProt A0A5F9CPW0); test: IKZF2 degradation in primary PBMCs in vitro (FIG. 3); format: cell-based; conditions: primary rabbit PBMCs; concentrations up to 10 μM
# T1 construct: endogenous in cells; host or cells: primary rabbit PBMCs
# Procedure: FIG. 3. is a bar graph showing the degradation of IKZF2 in primary PBMCs obtained from rabbit, dog, pig, cynomolgus monkey and human, and in primary splenocytes of mouse and rat and treated with Compound I-57.
# I-57 mediated degradation of IKZF2 was assessed in primary PBMCs obtained from rabbit, dog, pig, cynomolgus monkey, and human, and in primary splenocytes of mouse and rat. […] Species-specificity due to species specific alteration CRBN primary structure have previously been described with other compounds known to interact with the CRBN ubiquitin ligase complex to elicit protein specific degradation (Krönke et al, 2015).
# [3] = test system: isolated primary human T cells; test: In vitro T cell dysfunction/exhaustion assay by sequential TCR stimulation (FIG. 2D); format: cell-based; conditions: Teff cells; 2.5 nM, 25 nM and 2.5 μM
# From the text: FIG. 2C is a bar graph showing the suppressive potency of Treg cells expanded in the presence of Compound I-57.
# Although the specific transcriptional targets of IKZF2 remain to be defined, IKZF2 binds to and represses transcription from the IL-2 promoter region (Baine 2013). […] Finally, an in vitro assay recapitulating hallmarks of T cell dysfunction/exhaustion, by sequential TCR stimulation of isolated primary human T cells, was used to test the hypothesis that […] would rescue the exhausted phenotype and enhance Teff cell activity. […] In addition to IKZF1, other known cereblon substrates including translation termination factor G1 to S phase transition 1 (GSPT1) are not degraded by I-57 (FIG. 1).
# [4] = In vivo non-clinical PK profile, i.v. and p.o., all species tested (mouse, rat, dog, cynomolgus monkey)
# Procedure: The in vivo non-clinical PK profile of I-57 was investigated in mouse, rat, dog and cynomolgus monkey using I-57 free base. […] After p.o. administration, the absorption of I-57 was rapid with peak blood concentration (Tmax) occurring between 1 and 4 hours. […] In high dose PK and toxicology studies with I-57 the exposures in mouse, rat and monkey increased with dose.
# [5] = biological target: T2, FIZ1 (Homo sapiens, UniProt Q96SL8+Q96SW2); test: Whole cell proteomic analysis in 293T cells and subsequent analyses; format: cell-based
# T2 construct: endogenous in cells; host or cells: 293T
# Procedure: Other potential degradation targets of I-57 were evaluated in 293T cells using whole cell proteomic analysis. […] Subsequent analyses have confirmed that FIZ1 is degraded by about 50% at a 10 μM concentration of I-57 ([I-57 Investigator's Brochure]). […] FIZ1 is expressed in the neural retina where it transcriptionally represses the differentiation of photoreceptors. FIZ1 is also expressed in non-ocular tissues with unknown function.
# [6] = test system: IKZF2 expression in FOXP3+ T cells from PBMCs; test: PD after single oral dose in cynomolgus monkey: IKZF2 expression by flow cytometry; format: in vivo
# Procedure: FIG. 4 is a graph showing the PK/PD relationship in the cynomolgus monkey after a single oral of 0.01, 0.1 or 1 mg/kg of Compound I-57.
# FIG. 5. is a graph showing plasma concentration in the cynomolgus monkey of Compound I-57 and IKZF2 expression (as determined by flow cytometry) in FOXP3+ T cells from PBMCs after a single oral of 0.01, 0.1 or 1 mg/kg of Compound I-57.
# The PK/PD relationship of I-57 was examined in cynomolgus monkeys after a single oral dose of 0.01, 0.1 or 1 mg/kg. I-57 plasma concentration and IKZF2 expression (as determined by flow cytometry) in FOXP3+ T cells from PBMCs were determined (FIG. 4 and FIG. 5).
# Decreased (percentage change) IKZF2 positive FOXP3-cells, as determined by flow cytometry, were detectable at 4h post dose in the 1 mg/kg and 0.1 mg/kg groups, reaching maximum at 12-24 hrs post-dose and maintaining this maximum for 12-24 hrs.
# [7] = ECG (QTc interval) in single dose and 4-week GLP repeat dose study; format: in vivo, monkey
# Procedure: The risk of possible QTc interval prolongation at the starting dose is therefore considered low. QT prolongation may become clinically significant during escalation but are not anticipated to be dose limiting until doses at or above 640 mg. Monitoring and other measures to mitigate potential risk of arrhythmia is addressed in Example 3 below.
# T2 sequence (Q96SL8 whole entry): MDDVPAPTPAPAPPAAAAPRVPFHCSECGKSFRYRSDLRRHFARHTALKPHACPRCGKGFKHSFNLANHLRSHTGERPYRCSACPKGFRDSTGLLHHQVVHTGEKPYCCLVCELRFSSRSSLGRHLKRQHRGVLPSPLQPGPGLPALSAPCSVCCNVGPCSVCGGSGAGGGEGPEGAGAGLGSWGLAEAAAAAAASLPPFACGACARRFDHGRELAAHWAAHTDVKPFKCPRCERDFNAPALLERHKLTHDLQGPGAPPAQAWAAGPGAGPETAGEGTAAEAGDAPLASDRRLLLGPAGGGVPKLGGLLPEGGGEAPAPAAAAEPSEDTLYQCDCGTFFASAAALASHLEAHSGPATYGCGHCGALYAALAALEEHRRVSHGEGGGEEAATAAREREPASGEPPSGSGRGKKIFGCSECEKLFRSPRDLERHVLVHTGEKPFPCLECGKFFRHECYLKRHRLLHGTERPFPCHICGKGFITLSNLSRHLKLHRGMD
# T2 sequence (Q96SW2 whole entry): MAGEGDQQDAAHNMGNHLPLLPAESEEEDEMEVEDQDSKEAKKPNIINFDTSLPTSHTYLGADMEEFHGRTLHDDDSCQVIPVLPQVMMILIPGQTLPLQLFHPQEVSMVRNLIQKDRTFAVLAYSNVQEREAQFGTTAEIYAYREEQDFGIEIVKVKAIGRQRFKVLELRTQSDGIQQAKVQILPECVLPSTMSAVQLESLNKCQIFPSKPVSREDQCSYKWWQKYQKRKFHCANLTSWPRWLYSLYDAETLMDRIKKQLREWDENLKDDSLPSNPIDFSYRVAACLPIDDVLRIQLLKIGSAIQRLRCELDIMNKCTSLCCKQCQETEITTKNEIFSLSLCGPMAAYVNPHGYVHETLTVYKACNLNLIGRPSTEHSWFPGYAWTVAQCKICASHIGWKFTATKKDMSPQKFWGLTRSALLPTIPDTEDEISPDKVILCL
# T2 sequence (Q16531 whole entry partner): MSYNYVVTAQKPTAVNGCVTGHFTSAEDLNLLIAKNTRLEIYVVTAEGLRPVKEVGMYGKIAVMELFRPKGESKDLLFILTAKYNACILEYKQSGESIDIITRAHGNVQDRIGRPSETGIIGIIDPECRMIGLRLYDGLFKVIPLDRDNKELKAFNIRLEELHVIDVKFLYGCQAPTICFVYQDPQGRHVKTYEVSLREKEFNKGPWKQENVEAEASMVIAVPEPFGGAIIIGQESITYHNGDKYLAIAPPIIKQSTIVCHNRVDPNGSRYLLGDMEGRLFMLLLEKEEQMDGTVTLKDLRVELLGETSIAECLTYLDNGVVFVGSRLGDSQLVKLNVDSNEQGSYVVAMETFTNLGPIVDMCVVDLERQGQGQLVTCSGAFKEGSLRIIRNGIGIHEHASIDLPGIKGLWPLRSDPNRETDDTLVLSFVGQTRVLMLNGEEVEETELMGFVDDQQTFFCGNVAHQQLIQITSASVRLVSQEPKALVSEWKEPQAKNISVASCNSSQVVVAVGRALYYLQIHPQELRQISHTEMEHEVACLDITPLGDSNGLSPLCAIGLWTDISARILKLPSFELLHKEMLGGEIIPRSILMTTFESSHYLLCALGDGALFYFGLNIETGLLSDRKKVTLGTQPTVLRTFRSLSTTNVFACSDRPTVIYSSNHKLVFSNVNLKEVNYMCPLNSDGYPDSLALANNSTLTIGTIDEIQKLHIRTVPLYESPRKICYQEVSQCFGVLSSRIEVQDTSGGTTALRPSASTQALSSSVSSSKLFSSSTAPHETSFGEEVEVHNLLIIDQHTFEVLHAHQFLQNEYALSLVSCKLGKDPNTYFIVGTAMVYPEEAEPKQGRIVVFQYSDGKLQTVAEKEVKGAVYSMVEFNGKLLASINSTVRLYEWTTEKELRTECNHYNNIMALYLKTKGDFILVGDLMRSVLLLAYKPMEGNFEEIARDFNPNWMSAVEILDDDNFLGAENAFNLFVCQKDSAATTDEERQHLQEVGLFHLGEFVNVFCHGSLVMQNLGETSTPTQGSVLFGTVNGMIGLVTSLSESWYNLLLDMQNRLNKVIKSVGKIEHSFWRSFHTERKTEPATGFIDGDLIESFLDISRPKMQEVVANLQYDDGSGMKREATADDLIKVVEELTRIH
# T1 sequence (A0A5F9CPW0 1-526): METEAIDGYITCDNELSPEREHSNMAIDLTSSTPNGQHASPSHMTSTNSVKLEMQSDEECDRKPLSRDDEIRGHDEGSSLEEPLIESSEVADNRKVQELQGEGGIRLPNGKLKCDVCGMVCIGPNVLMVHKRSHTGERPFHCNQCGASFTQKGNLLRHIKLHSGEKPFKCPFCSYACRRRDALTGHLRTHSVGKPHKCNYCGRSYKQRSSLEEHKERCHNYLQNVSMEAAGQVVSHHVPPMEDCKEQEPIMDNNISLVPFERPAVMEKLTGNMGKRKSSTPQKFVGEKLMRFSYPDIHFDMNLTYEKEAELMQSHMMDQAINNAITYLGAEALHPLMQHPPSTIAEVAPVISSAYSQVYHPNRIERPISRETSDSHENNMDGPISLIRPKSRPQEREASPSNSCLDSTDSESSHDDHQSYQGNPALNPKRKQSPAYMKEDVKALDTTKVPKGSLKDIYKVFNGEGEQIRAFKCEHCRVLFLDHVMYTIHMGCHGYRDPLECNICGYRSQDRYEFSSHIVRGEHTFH
structure (smiles),measurement,setting,value
"O=C1CCC(N2Cc3cc(C4CCN(Cc5ccccc5)CC4)ccc3C2=O)C(=O)N1 (stereo not shown) [Compound I-57, 3-(5-(1-benzylpiperidin-4-yl)-1-oxoisoindolin-2-yl)piperidine-2,6-dione]",anti-IgG titers elicited by the immunization,[1],not further enhanced
same,degradation of IKZF2,[2],Degradation was observed
same,IFNγ production by IKZF2 positive cells,[3],concomitant increase
same,terminal half-life (T1/2),"[4]; i.v. administration, all species tested",moderate
same,absorption,[4]; p.o. administration,rapid
same,FIZ1 degradation,[5]; 10 μM concentration of I-57,about 50%
same,FIZ1 degradation (proteomics),"[5]; 293T cells, nearly 8000 proteins identified",degraded
same,time at which decreased IKZF2 positive FOXP3 cells were detectable,"[6]; post dose, 1 mg/kg and 0.1 mg/kg groups",4 h
same,duration for which maximum decrease was maintained,[6]; single oral dose,12 to 24 h
same,dose dependence of decrease in IKZF2 positive cells,"[6]; single oral dose of 0.01, 0.1 or 1 mg/kg",dose dependent
same,free Cmax in monkeys relative to free Cmax predicted at the clinical starting dose of 20 mg,[7]; monkeys at 3 mg/kg,40 times
same,QT effects,"[7]; monkeys, 3 mg/kg",no QT effects
same,time of highest magnitude of QTc effect,"[7]; monkeys, coinciding with Tmax",0.5 to 5.5 h
